From patent publication US20120245229A1, “METHOD FOR TREATING NEUROPATHIC PAIN” (priority 2009, published 2012)

What was measured:
Type in all cases: in vivo, mice
[1] = test system: complete Freund's adjuvant (CFA)-evoked heat hyperalgesia; test: CFA-evoked heat hyperalgesia (paw withdrawal latency, Hargreaves); conditions: for reduction of heat hyperalgesia: 10 ng i.t., post-CFA day 3, 1 h after injection
Description: (§1) Animals and pain models. Adult CD1 mice (male, 25-32 g) were used for most experiments. Knockout mice were used lacking TNFR1/II (Tnfrsf1a/1b^−/−) and TRPV1 (Trpv1^−/−) and C57BL/6 wild-type control mice, all from Jackson, for some experiments. All animal procedures performed in this study were approved by the Harvard Medical Area Standing Committee on Animals. 20 μl of diluted formalin (5%), carrageenan (CRG, 1%), or complete Freund's adjuvant (CFA) were injected into the plantar surface of a hindpaw to produce acute, persistent, or chronic inflammatory pain, respectively. Postoperative pain was also produced through hindpaw incision^36 and neuropathic pain by ligation of the spinal nerve^37.
Reagents and administration. RvE1 and RvD1 were suspended in 1% or 10% ethanol as vehicle for investigating acute (<1 h) and persistent (1-6 h) effects of resolvins on inflammatory pain. The reagents (10 μl) were delivered to the cerebral spinal fluid via intrathecal injection made by a spinal cord puncture between the L5 and L6 level with a 30G needle^38.
(§2) Behavioral analysis. Mice were habituated in the testing environment for two days and performed behavioral testing in a blinded manner. Formalin-evoked spontaneous inflammatory pain was assessed by measuring duration (seconds) animals spent on licking/flinching the affected paws every 5 min for 45 min. Capsaicin-induced spontaneous pain was aslo assessed for 10 min. For testing mechanical sensitivity, mice were put in boxes on an elevated metal mesh floor and stimulated hindpaw with a series of von Frey hairs with logarithmically incrementing stiffness (0.02-2.56 grams, Stoelting), presented perpendicular to the plantar surface. It was determined the 50% paw withdrawal threshold using Dixon's up-down method^40. For testing heat sensitivity, mice were placed in plastic boxes and tested heat sensitivity using Hargreaves radiant heat apparatus (IITC Life Science Inc.). The basal paw withdrawal latency was adjusted to 9-12 seconds and set a cut-off of 20 seconds to prevent tissue damage. The percent maximal possible antinociceptive effect (% M.P.E) was calculated using the equation % M.P.E.=[(PL−BL2)/(BL1−BL2)]×100. BL1, baseline latency before inflammation; BL2, baseline latency after inflammation but before drug injection; PL, latency post drug injection.
Intrathecal injection. To avoid systemic effects of drugs and target spinal mechanisms, drugs were delivered into cerebral spinal fluid (CSF) space around lumbosacral spinal cord via intrathecal (i.t.) administration. Spinal cord puncture was made with a 30G needle between the L5 and L6 level to deliver the reagents (10 μl) to the cerebral spinal fluid (Hylden and Wilcox, 1980)^5. […] In addition to spinal cord cells, intrathecal drug administration also affects DRG cells^6,7.
The anti-hyperalgesic efficacy of RvE1 prepared in 1% and 10% ethanol was compared on post-CFA day 3.

[2] = test system: capsaicin-induced spontaneous pain; test: Capsaicin-induced acute spontaneous pain
Description: as §2, with “The percent maximal possible antinociceptive effect (% M.P.E) was calculated using the equation % M.P.E.=[(PL−BL2)/(BL1−BL2)]×100.” left out, “injection. Intrathecal injection: […] To examine whether pretreatment of RvE1 attenuates capsaicin-induced acute spontaneous pain, RvE1 and capsaicin were mixed and injected at the same time (FIG. 3f). […]” for “injection.”

[3] = test system: carrageenan (CRG)-elicited heat hyperalgesia; test: Carrageenan (CRG)-elicited heat hyperalgesia; conditions: intraplantar pretreatment, 20 ng, 10 min before carrageenan
Description: as §1, §2
Resolvins were also used for intraplantar injection. […]

CC[C@@H](O)/C=C/C=C\C[C@@H](O)/C=C/C=C/C=C\[C@@H](O)CCCC(=O)O [RvE1, 5S,12R,18R-trihydroxyeicosapentaenoic acid]
reduction of heat hyperalgesia ([1]; vehicle 1% ethanol): 54.7%
reduction of heat hyperalgesia ([1]; vehicle 10% ethanol): 55.7%
reduction in hyperalgesia ([1]; 10 ng intrathecal, post-CFA day 3, 15 min after administration): ~75%
potency of 10 ng RvE1 compared with 10 μg NS-398 ([1]; intrathecal, CFA heat hyperalgesia, 1-6 h): more potent than 10 μg COX-2 inhibitor NS-398
intrathecal capsaicin-evoked acute spontaneous pain ([2]; intrathecal RvE1 mixed with capsaicin 0.5 μg): prevented
intraplantar capsaicin-induced acute pain ([2]; peripheral (intraplantar) RvE1 10 min before capsaicin 5 μg): reduced
CRG-evoked heat hyperalgesia [3]: substantially attenuated
